Data on one compound can be found in US4260601A, “Chemical compounds” (Nyegaard & Co. A/S, priority 1979, dated 1981).

This assay is described as follows: anorexigenic / biological activity of the peptide (no method described).

The structures appear in SMILES notation. Square brackets hold non-standard residues; d marks the D form. Peptide text beside a SMILES is read from it. pGlu = O=C1CC[C@@H](C(=O)O)N1

Turning to `O=C(O)CNC(=O)[C@H](Cc1c[nH]cn1)NC(=O)[C@@H]1CCC(=O)N1` [synthetic peptide, L-(pyro)glutamyl-L-histidyl-glycine] ([pGlu]-His-Gly-OH), the “biological activity of the synthetic peptide versus the biogenic material isolated from urine” value (comparison with biogenic material isolated from urine) was “comparable biological activity”. Besides, where the note is “statement in words, peptide found in the urine of patients suffering from severe anorexia”, the anorexigenic properties entry is on record as “possesses interesting anorexigenic properties”.
